Source: patent US8748121B2, “GSH adducts and uses thereof” (The Trustees of the University of Pennsylvania, priority 2006, dated 2014)
Where two headings read alike, the source gives them in different places.

Columns and labels:
[1] = test system: glutathione-S-transferase (GST); settings: GSH 1 mM, ONE 1 mM
Protocol: GSH (1 or 4 mM) was incubated with 4-ONE (1 mM or 100 μM) in 100 mM potassium phosphate buffer (200 μL) containing 1 mM EDTA (pH 6.5). Reactions were also conducted in the presence of equine or rat GST (10 or 100 units). Similar reactions were performed with 4 mM GSH and 2-[2 Hi]-ONE, 3-[2H]-ONE, or 2,3-[^2H2]-ONE (1 mM). Reaction mixtures were incubated at 37° C. for 1 h and then filtered through an Amicon Ultra-4 5,000 filter, and a 20 μL aliquot was analyzed by LC-MS using gradient system 1.
TOG and ONE were monitored by UV (224 nm) from the reaction between GSH (1 mM) and ONE (1 mM) in the presence of GST (10 or 100 units) for 24 h.

[2] = test system: EA.hy 926 endothelial cells; experiment: Analysis of GSH adducts (TOG) in ONE-treated endothelial cells by stable isotope dilution LC-MRM/MS; format: cell-based; settings: for detection of the adduct in cells treated with ONE: EA.hy 926 cells
Protocol: EA.hy 926 cells were incubated until they reached 70-80% confluence (approximately 2×10^6 cells). DMEM was removed and replaced with FBS-free DMEM prior to treatment with varying concentrations of ONE dissolved in ethanol. The final concentration of ethanol in the culture medium was <0.1%. […] […] […] The cell lysate flow-through and cell media (40 μL of each) were each analyzed in duplicate by LC-MRM/MS using gradient system 4 on the Finnigan Quantum Ultra AM mass spectrometer. The internal standard [^2H3]-ONE-GSH adduct IIb was prepared from 9-[2H3]-ONE and GSH. Quantification of endogenous ONE-GSH adduct IIb was performed from the peak area ratios for the transition m/z 426 [ONE-GSH adduct IIb, protonated molecule (MH+)]→m/z 280 (MH+—CONHCH2CO2H—CONH2) compared to the transition m/z 429 (MH^+, [^2H3]-ONE-GSH adduct IIb internal standard)→m/z 283 (MH+—CONHCH2CO2H—CONH2). Intracellular and extracellular ONE-GSH adduct IIb concentrations were determined by interpolation from a standard curve prepared by adding a fixed amount of [^2H3]-ONE-GSH adduct IIb (10 ng) to increasing amounts of authentic ONE-GSH adduct IIb in the blank lysis buffer or incubation medium (range 0.2 ng/mL to 50 ng/mL). A typical regression line for a standard curve of area ratios compared with ONE-GSH adduct IIb concentrations [ng/mL] in the blank lysis buffer was y) 0.065x +0.0045 (r^2=0.9999).

[3] = test system: EA.hy 926 endothelial cells; experiment: Analysis of GSH adducts in endothelial cells subjected to oxidative stress (t-BuOOH/FeII); format: cell-based; settings: 10 μM t-BuOOH/500 μM FeII
Protocol: EA.hy 926 cells were incubated until they reached 70-80% confluence (approximately 2×10^6 cells). DMEM was removed and replaced with FBS-free DMEM prior to treatment with t-BuOOH (10 μM) and Fe^II (500 μM, ferrous sulfate). Cells were collected after 30 min, and intracellular GSH adduct concentrations were quantified by stable isotope dilution LC-MRM/MS as described above. Channels corresponding to the specific MRM transitions of the ONE-GSH adduct IIb and its trideuterated internal standard were monitored as described above. MRM transitions for HNE- and ONO-GSH adducts m/z 464 (MH^+)→m/z 308 (MH^+—C9H16O2) were also monitored. Quantification of diastereomeric HNE-GSH adducts was conducted by determining the ratio of the area of the HNE-GSH adducts signal to the area of [^2H3]-ONE-GSH adduct IIb. Intracellular concentrations of HNE-GSH adducts were determined with reference to a standard curve constructed in lysis buffer using authentic standards of unlabeled HNE-GSH adducts as described above for the ONE-GSH adduct IIb.

[4] = incubated with 1% TFA, 37° C., 24 h
Protocol: A portion of ONE-GSH adduct IIb was then incubated with 1% TFA at 37° C. for 24 h. The reaction mixture (20 μL) was analyzed by LC-MS using gradient system 1.

Molecule: CCCCCC(=O)/C=C/C=O [ONE, 4-oxo-2(E)-nonenal]
- reaction rate with 100 units of GST relative to 10 units [1]: 6 times
- ONE still left in the reaction mixture ([1]; 10 units of GST, after 24 h): 6%
- ONE consumed ([1]; 10 units of GST, by 4 h): 58%
- consumption of ONE ([1]; 100 units of GST, after 4 h): 93%
- ONE remaining ([1]; 100 units of GST, after 24 h): not detectable
- ONE consumed ([1]; 100 units of GST, by 40 min): 52%
- ONE concentration at which the cells were no longer viable ([2]; EA.hy 926 endothelial cells): > 20 /<M
- ONE concentration at which TOG was detected in the extracellular milieu ([2]; LC-MRM/MS): ≥ 1 µM
- ONE concentration at which intracellular TOG could be quantified ([2]; LC-MRM/MS): ≥ 5 /iM

Molecule: CCCCCc1c2ccn1C(C(=O)O)CCC(=O)NC(C(=O)NCC(=O)O)CSc1ccn(c1CCCCC)C(C(=O)O)CCC(=O)NC(C(=O)NCC(=O)O)CS2 (stereo not drawn) [adduct III, 7,19-bis-(carboxymethyl-carbamoyl)-5,17-dioxo-25,26-dipentyl-9,21-dithia-1,6,13,18-tetraaza-tricyclo[20.2.1.110.13]hexacosa-10(26),11,22(25),23-tetraene-2,14-dicarboxylic acid]
- detection of the adduct in cells treated with ONE [2]: unable to detect
- detection of the adduct in cells subjected to oxidative stress [3]: unable to detect

Molecule: CCCCCc1c(SCC(NC(=O)CCC(N)C(=O)O)C(=O)NCC(=O)O)ccn1C(CCC(=O)NC(CS)C(=O)NCC(=O)O)C(=O)O (stereo not drawn) [adduct Ia, 2-amino-4-[2-(1-{1-carboxy-3-[1-(carboxymethyl-carbamoyl)-2-mercapto-ethylcarbamoyl]-propyl}-2-pentyl-1H-pyrrol-3-ylsulfanyl)-1-(carboxymethyl-carbamoyl)-ethylcarbamoyl]-butyric acid]
- detection of the adduct in cells treated with ONE [2]: unable to detect
- detection of the adduct in cells subjected to oxidative stress [3]: unable to detect

Molecule: (2S,7R)-7-[iV-(carboxymethyl)carbamoyl]-5-oxo-12-pentyl-9-thia-1,6-diazabicyclo[8.2.1]trideca-10(13),11-diene-2-carboxylic acid [TOG]
- incubation time to maximal formation of TOG ([1]; 10 units of GST): 24 h
- incubation time to maximal formation of TOG ([1]; 100 units of GST): 4 h
- TOG as share of the intracellular total GSH at the start of the incubation (10 nmol) ([2]; 20 fiM ONE for 30 min): 15.4%
- total TOG ([2]; 20 fiM ONE for 30 min): 1.54 nmol
- intracellular concentration of TOG ([2]; after the addition of 20 μM ONE (printed 20 μL; 20/<M)): 46.1 µM
- intracellular TOG, maximum of dose-dependent increase ([2]; after the addition of ONE): 46.1 pmol/2×10^6 cells
- concentration of intracellular TOG ([2]; cells incubated with 5 fiU ONE for 0.5 h): 2.8 µM
- conversion to dehydrated product (adduct IV) [4]: quantitative conversion
